{
  "source": "patent US6528286B1",
  "about": "“Mammalian cell culture process for producing glycoproteins” (Genentech, Inc., priority 1998, dated 2003)",
  "key": {"[1]": {"tested_on": "CHO cells producing TNFR1-IgG1", "assay_type": "cell-based, Chinese hamster", "conditions": "for SA content on day 9 / SA content on day 12 / Sialic Acid content on day 9 / Sialic Acid content on day 12: TNFR1-IgG1", "from_the_text": "The Chinese hamster ovary (CHO)cell line used as the mammalian host cell line was derived from CHO DG44 cells. The gene encoding the soluble type 1 TNFR-IgG1 was introduced into CHO DG44 cells by transfection. This was accomplished using the calcium phosphate technique for introducing DNA into mammalian cells. Clones expressing the TNFR1-IgG1 were amplified in methotrexate yielding high expressing clones and subsequently adapted to serum free medium. These cells were under continuous selective pressure until transferred to nonselective medium for growth and expansion of the inoculum. To provide cells for TNFR1-IgG1 production cultures the cell population described above was expanded from the medium containing methotrexate by serial subcultivations in vessels of increasing volumes to growth medium containing no methotrexate. For these steps of the process the non selective growth medium was DMEM/HAM F-12 based formulation (see, for example, U.S. Pat. No. 5,122,469, herein incorporated by reference in its entirety) with modified concentrations of some components, such as glucose, amino acids, salts, sugar, vitamins glycine, hypoxanthine, and thymidine; recombinant human insulin, hydrolyzed peptone (Protease Peptone 2 or 3, Primatone HS or Primatone RL), a cell protective agent such as Pluronic F68 (pluronic polyol) or the equivalent; Gentamycin; and trace elements. The cultures were controlled at pH 7.2+/−0.4 by the use of CO2 gas (acid) and /or Na2CO3 (base). Temperature was controlled near 37° C. during the growth period. Dissolved oxygen was maintained above 5% of air saturation by direct sparging with air and/or oxygen gas. The growth phase for each culture was followed by a second phase or transition phase wherein culture parameters were changed from growth to production conditions. During this transition phase the temperature of the culture system was decreased, generally to about between 30 and 35° C. and usually about 33° C. Copper chloride was added to the culture medium. Product accumulated during the production phase was analyzed for sialic acid content. […] Sialic acid content was analyzed by the method of Warren, L. (1959) J. Biol. Chem. 234:1971-1975. or the method of Anumula, K. R. (1995) Anal. Biochem. 230:24-30. Glycoprotein production culture was inoculated at 0.2% packed cell volume (PCV). Cells were grown for about 2 days under optimal growth conditions (37° C., low osmolality). When reaching 1% PCV (after about 2 days) the culture conditions were changed from optimal growth to production conditions. This means that growth is slowed under these conditions. This change includes a temperature shift to 33° C. and the addition of a complex feed (a concentrated form of media components). Due to the toxic effects of copper additions higher than 0.2 mM under growth conditions copper additions in the production phase of the glycoprotein production process were investigated. In the process, maximal cell mass was reached after the fifth day in culture. Since significant desialyation occurs after the fifth day in culture and especially significant decrease after about the eighth day in culture (FIG. 1), copper additions of 0.5 and 1.0 mM at day 6 and day 8 of the culture were investigated (FIG. 6). Further experiments were run to test copper additions at other concentrations. 0.38 mM copper was added."}, "[2]": {"tested_on": "CHO cells producing TNFR1-IgG1", "test": "Impact of CuCl2 on growth and viability of CHO cells under growth conditions", "assay_type": "cell-based, Chinese hamster", "protocol": "CuCl2 was added to the culture medium before inoculation with cells at concentrations from 0 to 3.2 mM. Inhibition of growth could be detected above 0.2 mM.\nCuCl2 was added to the culture medium before inoculation with cells at concentrations from 0-3.2 mM. A toxic effect could be observed at concentrations above 0.2 mM. Concentrations above 0.4 mM lead to rapid cell death.\nSince heavy metals such as copper are toxic the effects of CuCl2 concentrations from 0-5 mM on growth and viability of CHO cells at 37° C. and 33° C. incubation temperature producing a glycoprotein were investigated(FIGS. 3, 4 and 5). Toxic effects and growth inhibition could be detected above 0.2 mM CuCl2."}, "[3]": {"tested_on": "CHO cells producing TNFR1-IgG1", "test": "Incubation of high cell concentration perfusion culture suspension in spinner flasks with CuCl2", "assay_type": "cell-based, Chinese hamster", "conditions": "1 mM and 5 mM CuCl2, 24 hours at 33° C.", "protocol": "FIG. 2: Sialic acid (SA) content :of TNFR1-IgG1 after incubation of cell culture suspension taken from a perfusion culture at high cell concentration (6% packed cell volume, 77% viability at start of incubation) compared to starting sialic acid content before incubation. A sample of the perfusion culture was removed and incubated in spinner flasks containing 0, 1 mM and 5 mM CuCl2 for 24 hours at 33° C.\nSialic acid content was analyzed by the method of Warren, L. (1959) J. Biol. Chem. 234:1971-1975. or the method of Anumula, K. R. (1995) Anal. Biochem. 230:24-30.\nTo test the effect of CuCl2 on stabilization of the sialic acid content high cell concentration from a perfusion culture were incubated over night in spinner flasks with the addition 0, 1 and 5 mM CuCl2."}, "CHO-K1 cells": {"tested_on": "CHO-K1 cells", "conditions": "copper-supplemented culture medium; cited from earlier work"}, "[4]": {"tested_on": "Cytosolic and membrane-associated sialidase I", "conditions": "partially purified extracts from rat liver or rat skeletal muscle; cited from earlier work"}, "HeLa cell": {"tested_on": "HeLa cell", "conditions": "HeLa cell culture medium; cited from earlier work"}, "[5]": {"conditions": "0.5 and 1.0 mM CuCl2 added in production phase"}, "[6]": {"conditions": "copper 0.38 mM added on day 6, Table III"}, "[7]": {"conditions": "copper 0.5 mM added on day 6, Table II"}, "[8]": {"conditions": "copper 0.5 mM added on day 6, Table III"}, "[9]": {"conditions": "copper 0.5 mM added on day 8, Table II"}, "[10]": {"conditions": "copper 1.0 mM added on day 6, Table II"}, "[11]": {"conditions": "copper 1.0 mM added on day 8, Table II"}},
  "note": "Entries after “also recorded” stand apart in the source; their conditions may differ. Read-outs that look alike come from different tables or passages of the source.",
  "data": [
    {"compound": "[Cl][Cu][Cl]", "note": "[CuCl2]", "values": [
      {"measurement": "Culture performance and productivity", "setting": "[1]; [5]", "value": "good culture performance and productivity"},
      {"measurement": "Sialic acid content in production cultures", "setting": "[1]; [5]", "value": "stabilized"},
      {"measurement": "SA content on day 9", "setting": "[1]; [6]", "value": 5.5, "unit": "mol/mol"},
      {"measurement": "SA content on day 12", "setting": "[1]; [6]", "value": 4.9, "unit": "mol/mol"},
      {"measurement": "Sialic Acid content on day 9", "setting": "[1]; [7]", "value": 5.3, "unit": "mol/mol"},
      {"measurement": "Sialic Acid content on day 12", "setting": "[1]; [7]", "value": 4.9, "unit": "mol/mol"},
      {"measurement": "SA content on day 9", "setting": "[1]; [8]", "value": 5.3, "unit": "mol/mol"},
      {"measurement": "SA content on day 12", "setting": "[1]; [8]", "value": 5.0, "unit": "mol/mol"},
      {"measurement": "Sialic Acid content on day 9", "setting": "[1]; [9]", "value": 5.0, "unit": "mol/mol"},
      {"measurement": "Sialic Acid content on day 12", "setting": "[1]; [9]", "value": 5.0, "unit": "mol/mol"},
      {"measurement": "Sialic Acid content on day 9", "setting": "[1]; [10]", "value": 5.0, "unit": "mol/mol"},
      {"measurement": "Sialic Acid content on day 12", "setting": "[1]; [10]", "value": 5.0, "unit": "mol/mol"},
      {"measurement": "Sialic Acid content on day 9", "setting": "[1]; [11]", "value": 5.0, "unit": "mol/mol"},
      {"measurement": "Sialic Acid content on day 12", "setting": "[1]; [11]", "value": 5.0, "unit": "mol/mol"},
      {"measurement": "Product concentr. on day 9", "setting": "[1]; [6]", "value": 324, "unit": "mg/L"},
      {"measurement": "Product concentr. on day 12", "setting": "[1]; [6]", "value": 518, "unit": "mg/L"},
      {"measurement": "Product concentr. on day 9", "setting": "[1]; [7]", "value": 230, "unit": "mg/L"},
      {"measurement": "Product concentr. on day 12", "setting": "[1]; [7]", "value": 304, "unit": "mg/L"},
      {"measurement": "Product concentr. on day 9", "setting": "[1]; [8]", "value": 350, "unit": "mg/L"},
      {"measurement": "Product concentr. on day 12", "setting": "[1]; [8]", "value": 545, "unit": "mg/L"},
      {"measurement": "Product concentr. on day 9", "setting": "[1]; [9]", "value": 244, "unit": "mg/L"},
      {"measurement": "Product concentr. on day 12", "setting": "[1]; [9]", "value": 417, "unit": "mg/L"},
      {"measurement": "Product concentr. on day 9", "setting": "[1]; [10]", "value": 218, "unit": "mg/L"},
      {"measurement": "Product concentr. on day 12", "setting": "[1]; [10]", "value": 286, "unit": "mg/L"},
      {"measurement": "Product concentr. on day 9", "setting": "[1]; [11]", "value": 289, "unit": "mg/L"},
      {"measurement": "Product concentr. on day 12", "setting": "[1]; [11]", "value": 371, "unit": "mg/L"},
      {"measurement": "Toxic effect at 37 versus 33° C. incubation temperature", "setting": "[2]; 0-5 mM CuCl2", "value": "very similar for 37 °C and 33 °C"},
      {"measurement": "CuCl2 concentration above which inhibition of growth could be detected", "setting": "[2]; added before inoculation, 0 to 3.2 mM (0-5 mM)", "value": "above 0.2 mM"},
      {"measurement": "Copper concentration above which cell death results", "setting": "[2]; conditions normally associated with cell growth", "value": "above 0.4 mM"},
      {"measurement": "CuCl2 concentration above which a toxic effect on viability could be observed", "setting": "[2]; growth conditions, added before inoculation", "value": "above 0.2 mM"},
      {"measurement": "Stabilization of sialic acid content of TNFR1-IgG1", "setting": "[3]", "value": "effective in stabilizing the sialic acid content in a dose dependent manner; also recorded: effective in stabilizing the SA content in a dose dependent manner"}
    ]},
    {"compound": "[Cu+2]", "note": "[Cu^2+]", "values": [
      {"measurement": "LD50", "setting": "CHO-K1 cells", "value": 126, "unit": "µM"},
      {"measurement": "Copper ion concentration at which sialidase I was inhibited", "setting": "[4]", "value": "approximately 1 mM"},
      {"measurement": "Copper ion concentrations that did not interfere with cell growth", "setting": "HeLa cell", "value": "1-100 μm"}
    ]}
  ]
}
